Experimental data taken from ChEMBL document CHEMBL4004838, “Design and synthesis of novel phenyl -1, 4-beta-carboline-hybrid molecules as potential anticancer agents” (Eur J Med Chem, 2017).

Tests used:
Format in all cases: functional
[1] = system: MDA-MB-435; assay: Growth inhibition of human MDA-MB-435 cells assessed as cell growth at 0.1 uM incubated for 48 hrs by sulforhodamine B assay relative to control; details: MDA-MB-435, 48 h, read-out: Activity
[2] = system: SK-MEL-5; assay: Growth inhibition of human SK-MEL-5 cells incubated for 48 hrs by sulforhodamine B assay; details: SK-MEL-5, 48 h
[3] = system: MDA-MB-231; assay: Growth inhibition of human MDA-MB-231 cells assessed as cell growth at 1 uM incubated for 48 hrs by sulforhodamine B assay relative to control; details: MDA-MB-231, 48 h, read-out: Activity
[4] = system: KM12; assay: Growth inhibition of human KM12 cells assessed as cell growth at 100 uM incubated for 48 hrs by sulforhodamine B assay relative to control; details: KM12, 48 h, read-out: Activity
[5] = system: A498; assay: Growth inhibition of human A498 cells assessed as cell growth at 0.01 uM incubated for 48 hrs by sulforhodamine B assay relative to control; details: A498, 48 h, read-out: Activity
[6] = system: U-251; assay: Growth inhibition of human U251 cells incubated for 48 hrs by sulforhodamine B assay; details: U-251, 48 h
[7] = system: CAKI-1; assay: Growth inhibition of human Caki1 cells incubated for 48 hrs by sulforhodamine B assay; details: CAKI-1, 48 h
[8] = system: IGROV-1; assay: Growth inhibition of human IGROV1 cells assessed as cell growth at 0.1 uM incubated for 48 hrs by sulforhodamine B assay relative to control; details: IGROV-1, 48 h, read-out: Activity
[9] = system: OVCAR-5; assay: Growth inhibition of human OVCAR5 cells assessed as cell growth at 0.1 uM incubated for 48 hrs by sulforhodamine B assay relative to control; details: OVCAR-5, 48 h, read-out: Activity
[10] = system: NCI-H322M; assay: Growth inhibition of human NCI-H322M cells incubated for 48 hrs by sulforhodamine B assay
[11] = system: NCI-H23; assay: Growth inhibition of human NCI-H23 cells assessed as cell growth at 0.01 uM incubated for 48 hrs by sulforhodamine B assay relative to control; details: NCI-H23, 48 h, read-out: Activity
[12] = system: UACC-62; assay: Growth inhibition of human UACC62 cells assessed as cell growth at 0.1 uM incubated for 48 hrs by sulforhodamine B assay relative to control; details: UACC-62, 48 h, read-out: Activity
[13] = system: SNB-75; assay: Growth inhibition of human SNB75 cells assessed as cell growth at 1 uM incubated for 48 hrs by sulforhodamine B assay relative to control; details: SNB-75, 48 h, read-out: Activity
[14] = system: OVCAR-3; assay: Growth inhibition of human OVCAR3 cells assessed as cell growth at 0.1 uM incubated for 48 hrs by sulforhodamine B assay relative to control; details: OVCAR-3, 48 h, read-out: Activity
[15] = system: HOP-62; assay: Growth inhibition of human HOP62 cells incubated for 48 hrs by sulforhodamine B assay; details: HOP-62, 48 h
[16] = system: HOP-92; assay: Growth inhibition of human HOP92 cells assessed as cell growth at 0.01 uM incubated for 48 hrs by sulforhodamine B assay relative to control; details: HOP-92, 48 h, read-out: Activity
[17] = system: MDA-MB-435; assay: Growth inhibition of human MDA-MB-435 cells assessed as cell growth at 1 uM incubated for 48 hrs by sulforhodamine B assay relative to control; details: MDA-MB-435, 48 h, read-out: Activity
[18] = system: Malme-3M; assay: Growth inhibition of human MALME-3M cells assessed as cell growth at 100 uM incubated for 48 hrs by sulforhodamine B assay relative to control; details: read-out: Activity
[19] = system: IGROV-1; assay: Growth inhibition of human IGROV1 cells assessed as cell growth at 0.01 uM incubated for 48 hrs by sulforhodamine B assay relative to control; details: IGROV-1, 48 h, read-out: Activity
[20] = system: UACC-62; assay: Growth inhibition of human UACC62 cells assessed as cell growth at 100 uM incubated for 48 hrs by sulforhodamine B assay relative to control; details: UACC-62, 48 h, read-out: Activity
[21] = system: RPMI-8226; assay: Growth inhibition of human RPMI8226 cells incubated for 48 hrs by sulforhodamine B assay; details: RPMI-8226, 48 h
[22] = system: KM12; assay: Growth inhibition of human KM12 cells assessed as cell growth at 1 uM incubated for 48 hrs by sulforhodamine B assay relative to control; details: KM12, 48 h, read-out: Activity
[23] = system: BT-549; assay: Growth inhibition of human BT549 cells assessed as cell growth at 100 uM incubated for 48 hrs by sulforhodamine B assay relative to control; details: BT-549, 48 h, read-out: Activity
[24] = system: SK-MEL-2; assay: Growth inhibition of human SK-MEL-2 cells assessed as cell growth at 0.01 uM incubated for 48 hrs by sulforhodamine B assay relative to control; details: SK-MEL-2, 48 h, read-out: Activity
[25] = system: HCT-15; assay: Growth inhibition of human HCT15 cells assessed as cell growth at 0.1 uM incubated for 48 hrs by sulforhodamine B assay relative to control; details: HCT-15, 48 h, read-out: Activity
[26] = system: M14; assay: Growth inhibition of human M14 cells incubated for 48 hrs by sulforhodamine B assay; details: M14, 48 h
[27] = system: HL-60(TB); assay: Growth inhibition of human HL-60(TB) cells assessed as cell growth at 0.1 uM incubated for 48 hrs by sulforhodamine B assay relative to control; details: HL-60, 48 h, read-out: Activity
[28] = system: HCT-116; assay: Growth inhibition of human HCT116 cells assessed as cell growth at 0.1 uM incubated for 48 hrs by sulforhodamine B assay relative to control; details: HCT-116, 48 h, read-out: Activity
[29] = system: NCI-H226; assay: Growth inhibition of human NCI-H226 cells assessed as cell growth at 0.01 uM incubated for 48 hrs by sulforhodamine B assay relative to control; details: NCI-H226, 48 h, read-out: Activity
[30] = read-out: LC50 (the source's name)
[31] = read-out: pLC50 (the source's name) (converted)

c1ccc2c3c([nH]c2c1)C(c1ccc(C2NCCc4c2[nH]c2ccccc42)cc1)NCC3 (racemic) showed a growth at 0.1 µM [1] of 99%, a GI50 ([2]; read-out: GI50) of 1.7 µM and a CC50 [2, 30] of 5.75 µM. The TGI ([2]; read-out: TGI) was 3.13 µM, the GI50 ([2]; read-out: pGI50 (converted)) was 1.7 µM and the CC50 [2, 31] was 5.75 µM. It also gave a TGI ([2]; read-out: pTGI (converted)) of 3.16 µM, a growth at 1 µM [3] of 3% and a growth at 100 µM [4] of 88%. For the same compound, the growth at 0.01 µM [5] was 73%, the GI50 ([6]; read-out: pGI50 (converted)) was 0.324 µM and the TGI ([6]; read-out: pTGI (converted)) was 1.1 µM. The GI50 ([7]; read-out: GI50) was 1.66 µM, the CC50 [7, 30] was 9.82 µM and the TGI ([7]; read-out: TGI) was 4.03 µM. It also gave a GI50 ([7]; read-out: pGI50 (converted)) of 1.66 µM, a CC50 [7, 31] of 9.77 µM and a TGI ([7]; read-out: pTGI (converted)) of 4.07 µM. The growth at 0.1 µM [8] was 92%, the growth at 0.1 µM [9] was 93% and the GI50 ([10]; read-out: GI50) was 1.25 µM. It also gave a CC50 [10, 30] of 5.68 µM, a TGI ([10]; read-out: TGI) of 2.66 µM and a GI50 ([10]; read-out: pGI50 (converted)) of 1.26 µM. The CC50 [10, 31] was 5.62 µM, the TGI ([10]; read-out: pTGI (converted)) was 2.69 µM and the growth at 0.01 µM [11] was 95%. The growth at 0.1 µM [12] was 99%, the growth at 1 µM [13] was 46% and the growth at 0.1 µM [14] was 96%. The GI50 ([15]; read-out: GI50) was 1.31 µM, the TGI ([15]; read-out: TGI) was 2.79 µM and the GI50 ([15]; read-out: pGI50 (converted)) was 1.32 µM. The TGI ([15]; read-out: pTGI (converted)) was 2.82 µM, the growth at 0.01 µM [16] was 86% and the growth at 1 µM [17] was 11%. The growth at 100 µM [18] was 83%, the growth at 0.01 µM [19] was 99% and the growth at 100 µM [20] was 93%. For the same compound, the CC50 [21, 30] was 1.23 µM, the GI50 ([21]; read-out: pGI50 (converted)) was 0.339 µM and the CC50 [21, 31] was 12.3 µM. The TGI ([21]; read-out: pTGI (converted)) was 1.1 µM, the growth at 1 µM [22] was 54% and the growth at 100 µM [23] was -90%. It also gave a growth at 0.01 µM [24] of 100%, a growth at 0.1 µM [25] of 95% and a CC50 [26, 30] of 4.65 µM. It also gave a GI50 ([26]; read-out: pGI50 (converted)) of 0.407 µM, a CC50 [26, 31] of 4.68 µM and a TGI ([26]; read-out: pTGI (converted)) of 1.58 µM. The growth at 0.1 µM [27] was 116%, the growth at 0.1 µM [28] was 89% and the growth at 0.01 µM [29] was 97%.

c1ccc2[nH]c(-c3ccc(-c4nccc5c4[nH]c4ccccc45)cc3)nc2c1 gave a growth at 0.1 µM [1] of 93%, a CC50 [2, 30] of 4.42 µM and a GI50 ([2]; read-out: pGI50 (converted)) of 3.72 µM. For the same compound, the CC50 [2, 31] was 44.7 µM, the TGI ([2]; read-out: pTGI (converted)) was 14.5 µM and the growth at 1 µM [3] was 99%. For the same compound, the growth at 100 µM [4] was 76%, the growth at 0.01 µM [5] was 96% and the GI50 ([6]; read-out: GI50) was 2.74 µM. It also gave an LC50 ([6]; read-out: LC50) of 4.05 µM, a TGI ([6]; read-out: TGI) of 7.83 µM and a GI50 ([6]; read-out: pGI50 (converted)) of 2.75 µM. It also gave an LC50 ([6]; read-out: pLC50 (converted)) of 40.7 µM, a TGI ([6]; read-out: pTGI (converted)) of 7.76 µM and a GI50 ([7]; read-out: GI50) of 2.41 µM. For the same compound, the CC50 [7, 30] was 3.68 µM, the TGI ([7]; read-out: TGI) was 7.11 µM and the GI50 ([7]; read-out: pGI50 (converted)) was 2.4 µM. The CC50 [7, 31] was 37.2 µM, the TGI ([7]; read-out: pTGI (converted)) was 7.08 µM and the growth at 0.1 µM [8] was 99%. It also gave a growth at 0.1 µM [9] of 90%, a GI50 ([10]; read-out: GI50) of 2.86 µM and a CC50 [10, 30] of 4.41 µM. For the same compound, the TGI ([10]; read-out: TGI) was 8.9 µM, the GI50 ([10]; read-out: pGI50 (converted)) was 2.88 µM and the CC50 [10, 31] was 43.7 µM. The TGI ([10]; read-out: pTGI (converted)) was 8.91 µM, the growth at 0.01 µM [11] was 95% and the growth at 0.1 µM [12] was 91%. The growth at 1 µM [13] was 74%, the growth at 0.1 µM [14] was 103% and the GI50 ([15]; read-out: GI50) was 2.8 µM. For the same compound, the LC50 (concentration killing 50% of cells) ([15]; read-out: LC50) was 5.31 µM, the GI50 ([15]; read-out: pGI50 (converted)) was 2.82 µM and the LC50 (concentration killing 50% of cells) ([15]; read-out: pLC50 (converted)) was 53.7 µM. The TGI ([15]; read-out: pTGI (converted)) was 10.7 µM, the growth at 0.01 µM [16] was 85% and the growth at 1 µM [17] was 91%. For the same compound, the growth at 100 µM [18] was 72%, the growth at 0.01 µM [19] was 99% and the growth at 100 µM [20] was 57%. For the same compound, the GI50 ([21]; read-out: GI50) was 2.48 µM, the CC50 [21, 30] was greater than 1 µM and the TGI ([21]; read-out: TGI) was 5.61 µM. For the same compound, the GI50 ([21]; read-out: pGI50 (converted)) was 2.45 µM, the CC50 [21, 31] was greater than 100 µM and the TGI ([21]; read-out: pTGI (converted)) was 5.62 µM. It also gave a growth at 1 µM [22] of 89%, a growth at 100 µM [23] of 43% and a growth at 0.01 µM [24] of 95%. The growth at 0.1 µM [25] was 97%, the GI50 ([26]; read-out: GI50) was 1.79 µM and the CC50 [26, 30] was 7.12 µM. For the same compound, the TGI ([26]; read-out: TGI) was 3.57 µM, the GI50 ([26]; read-out: pGI50 (converted)) was 1.78 µM and the CC50 [26, 31] was 7.08 µM. The TGI ([26]; read-out: pTGI (converted)) was 3.55 µM, the growth at 0.1 µM [27] was 92% and the growth at 0.1 µM [28] was 96%. It also gave a growth at 0.01 µM [29] of 93%.
